Patent publication US4758421A (priority 1985, dated 1988)

How the values were obtained:
CHA255 = assay: Binding constants with monoclonal antibody CHA255 by equilibrium dialysis; set-up: species or system mice; details: specificity of antibody for the antibody-inducing antigen
Method: (§1) Monoclonal antibodies against L--benzyl--EDTA--In were prepared in cooperation with Hybritech, Inc., 11085 Toneyana Road, San Diego, Calif. 92121. Briefly, an L--benzyl--EDTA--In isothiocyanate reagent was reacted with keyhole limpet hemocyanin, which was used to immunize mice. Splenocytes derived from the immunized mice were fused with a suitable tumor cell line, using known somatic cell hybridization techniques. Promising clones were grown in mouse ascites fluid, and the antibodies obtained were purified by ion-exchange chromatography. Two antibodies against L--benzyl--EDTA--In, designated CHA255 and CHB235, were selected.
(§2) The binding constants of the two monoclonal antibodies with L--benzyl--EDTA chelates of several different metals were determined by equilibrium dialysis. The measured binding constants were shown in Table II below, with standard deviations indicated in parentheses.
(§3) Table III gives binding constant data from a second binding affinity study, involving different In--EDTA and In--HED3A chelates.

CHB235 = assay: Binding constants with monoclonal antibody CHB235 by equilibrium dialysis; set-up: species or system mice; details: specificity of antibody for the antibody-inducing antigen
Method: as §1, §2, §3

[1] = tested on: Chinese hamster ovary (CHO) cells; assay: CHO cell survival after 60 minutes exposure (FIG. 4); format: cell-based
Method: Chinese hamster ovary (CHO) cells were cultured in standard cell-culture medium, under log phase growth conditions. Increasing concentrations of either BL--Co--S--FeEDTA or FeEDTA were added to each of two groups of cells. The cells were incubated for 60 minutes at 37° C., and the percent cell survivors was determined conventionally by serial dilution in microtitre plates.

Molecule | binding constant greater than for non-antigen metal chelates (CHA255) | binding constant greater than for non-antigen metal chelates (CHB235) | cell toxicity [1]
L--benzyl--EDTA--In [In (III)] | 1 to 4 orders of magnitude | 1 to 4 orders of magnitude | 
O=C([O-])CN(CCN(CC(=O)[O-])CC(=O)[O-])CC(=O)[O-].[Fe+3] [FeEDTA] |  |  | relatively non-toxic
